One test deals with hNAMPT protein (Homo sapiens (Human), UniProt P43490). Nature of the test: NAMPT enzyme assay (TR-FRET/HTRF, BodiPY ligand, anti 6His-Tb). Format: binding. Conditions: for pIC50: NAMPT IC50 range class, read-out: IC50; for inhibition at 1 µM: read-out: Percent Inhibition. In outline:
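TR-FRET binding assay in which His-tagged human NAMPT with anti-6His-Tb is displaced by compound from a BodiPY ligand, incubated 1 h at rt in the dark. Excitation was at 320 nm, with the 520/486 nm emission ratio read. IC50 was fitted from inhibition relative to DMSO controls.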

A further test relates to PC3 cells. In words: PC3 growth inhibition (Cell-titer glo, 72 hours). In kind it is cell-based. Conditions: Homo sapiens, PC-3, PC3 cells, 72 hours, Cell-titer glo, read-out: Percent Inhibition (PC3 growth inhibition); for inhibition at 1 µM: compound concentration 1 μM; for inhibition at 1.667 µM: compound concentration 1.667 μM. In a few lines: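 PC3 cells in RPMI1640 seeded overnight at 37 °C, 5% CO2, then exposed to compound diluted in AIM serum-free medium for 72 h. Viability by CellTiter-Glo luminescence vs DMSO controls; single-concentration % remaining viability (1 μM or 1.667 μM), or GI50/LD50 from curves.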

We go through 25 compounds from patent US10144742B2 (Millennium Pharmaceuticals, Inc., priority 2014, dated 2018).

pIC50: −log10 of the molar value. Like-named read-outs stand apart in the source and are kept apart here.

Chain of hNAMPT protein (P43490 whole entry): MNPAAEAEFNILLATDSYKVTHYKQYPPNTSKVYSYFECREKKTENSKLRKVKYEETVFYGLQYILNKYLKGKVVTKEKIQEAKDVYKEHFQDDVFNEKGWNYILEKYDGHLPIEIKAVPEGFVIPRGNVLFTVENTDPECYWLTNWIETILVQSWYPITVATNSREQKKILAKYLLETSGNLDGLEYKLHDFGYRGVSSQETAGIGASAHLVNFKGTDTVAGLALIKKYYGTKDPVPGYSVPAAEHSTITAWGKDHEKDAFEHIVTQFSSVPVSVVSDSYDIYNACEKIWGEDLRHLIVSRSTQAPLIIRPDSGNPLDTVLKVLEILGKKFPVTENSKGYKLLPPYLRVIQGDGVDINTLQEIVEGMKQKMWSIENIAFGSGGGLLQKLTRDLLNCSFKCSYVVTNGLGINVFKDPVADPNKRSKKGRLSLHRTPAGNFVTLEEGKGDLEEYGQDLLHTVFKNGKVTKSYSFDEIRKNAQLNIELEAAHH

Broadly, the pIC50 is the negative decadic logarithm of the IC50, by convention in mol/L. For orientation: inhibition means the drop in the measured response relative to a control, in per cent. On to `O=C(NCCCn1ccnc1)c1ccc2nc(-c3ccc4c(c3)CCO4)c(-c3ccccc3)nc2c1` [Compound I-140, 2-(2,3-dihydro-1-benzofuran-5-yl)-N-[3-(1H-imidazol-1-yl)propyl]-3-phenylquinoxaline-6-carboxamide], for which the pIC50 at hNAMPT protein was 6.30 to 7.00. Also, the inhibition at 1 µM on hNAMPT protein (compound concentration 1 μM) was 79%; with PC3 cells, -8%.

`O=C(NCCCn1ccnc1)c1ccc2nc(C3=CCOCC3)c(-c3ccccc3)nc2c1` [Compound I-141, 2-(3,6-dihydro-2H-pyran-4-yl)-N-[3-(1H-imidazol-1-yl)propyl]-3-phenylquinoxaline-6-carboxamide]: the pIC50 at hNAMPT protein was 6.30 to 7.00. The inhibition at 1 µM was 74% at hNAMPT protein (compound concentration 1 μM) and -8% in the test with PC3 cells.

Take `N#Cc1nc2ccc(C(=O)NCCCn3ccnc3)cc2nc1-c1ccccc1` [Compound I-142, 2-Cyano-N-[3-(1H-imidazol-1-yl)propyl]-3-phenylquinoxaline-6-carboxamide]: at hNAMPT protein, the negative logarithm of the IC50 (pIC50) is 5.00 to 5.70 and the inhibition at 1 µM was 24%. Further, in the test with PC3 cells, the inhibition at 1 µM worked out at 95%.

With `Cn1cnc2cc(-c3nc4cc(C(=O)NCCCn5ccnc5)ccc4nc3-c3ccccc3)ccc21` [Compound I-143, N-[3-(1H-imidazol-1-yl)propyl]-3-(1-methyl-1H-benzimidazol-5-yl)-2-phenylquinoxaline-6-carboxamide], the pIC50 at hNAMPT protein is 5.00 to 5.70. Also, the inhibition at 1 µM on hNAMPT protein (compound concentration 1 μM) is 3%; with PC3 cells, 103%.

As to `O=C(NCCCn1ccnc1)c1ccc2nc(-c3ccccc3)c(N3CCOCC3)nc2c1` [Compound I-144, N-[3-(1H-imidazol-1-yl)propyl]-3-(morpholin-4-yl)-2-phenylquinoxaline-6-carboxamide], the negative-log IC50 (pIC50) on hNAMPT protein is 5.70 to 6.00. The inhibition at 1 µM on hNAMPT protein (compound concentration 1 μM) is 43%; with PC3 cells, 2%.

For the compound `NS(=O)(=O)c1ccc(-c2nc3ccc(C(=O)NCCCn4ccnc4)cc3nc2-c2ccccc2)cc1` [Compound I-145, N-[3-(1H-imidazol-1-yl)propyl]-3-phenyl-2-(4-sulfamoylphenyl)quinoxaline-6-carboxamide], at hNAMPT protein, the negative-log IC50 (pIC50) is 6.30 to 7.00. The results for the inhibition at 1 µM on hNAMPT protein (compound concentration 1 μM) and in the test with PC3 cells were 76% and -7%, respectively.

As for `O=C(NCCCn1ccnc1)c1ccc2nc(N3CCN4CCCC4C3)c(-c3ccccc3)nc2c1` (stereo not drawn) [Compound I-146, 2-(hexahydropyrrolo[1,2-a]pyrazin-2(1H)-yl)-N-[3-(1H-imidazol-1-yl)propyl]-3-phenylquinoxaline-6-carboxamide], on hNAMPT protein, the pIC50 is 6.30 to 7.00. The inhibition at 1 µM at hNAMPT protein (compound concentration 1 μM) is 76%; in the test with PC3 cells it was -7%.

As for `O=C(NCc1ccc2nccn2c1)c1ccc2nc(N3CCOCC3)c(-c3ccc(F)cc3)nc2c1` [Compound I-147, 3-(4-fluorophenyl)-N-(imidazo[1,2-a]pyridin-6-ylmethyl)-2-(morpholin-4-yl)quinoxaline-6-carboxamide], the pIC50 at hNAMPT protein was more than 7.00. Further, at hNAMPT protein (compound concentration 1 μM), the inhibition at 1 µM is 95%. Moreover, the inhibition at 1.667 µM with PC3 cells is 2%.

Consider `CC(C)(C)OC(=O)NCc1ccc(-c2nc3ccc(C(=O)NCCCn4ccnc4)cc3nc2-c2ccccc2)cc1` [Compound I-148, tert-Butyl [4-(6-{[3-(1H-imidazol-1-yl)propyl]carbamoyl}-3-phenylquinoxalin-2-yl)benzyl]carbamate], for which, on hNAMPT protein, the negative logarithm of the IC50 (pIC50) was 6.30 to 7.00 and the inhibition at 1 µM amounted to 85%. Also, in the test with PC3 cells, the inhibition at 1 µM was 1%.

In the case of `O=C(NCCCn1ccnc1)c1ccc2nc(-c3ccc4[nH]ccc4c3)c(-c3ccccc3)nc2c1` [Compound I-149, N-[3-(1H-imidazol-1-yl)propyl]-2-(1H-indol-5-yl)-3-phenylquinoxaline-6-carboxamide], the negative-log IC50 (pIC50) on hNAMPT protein was 6.30 to 7.00. Besides, the inhibition at 1 µM on hNAMPT protein (compound concentration 1 μM) is 86%; in the test with PC3 cells it was -8%.

As to `CS(=O)(=O)C1CCN(c2nc3ccc(C(=O)NCCCn4ccnc4)cc3nc2-c2ccccc2)C1` (stereo not drawn) [Compound I-150, N-[3-(1H-imidazo-1-yl)propyl]-2-[3-(methylsulfonyl)pyrrolidin-1-yl]-3-phenylquinoxaline-6-carboxamide], the negative logarithm of the IC50 (pIC50) at hNAMPT protein was 6.30 to 7.00. Moreover, the inhibition at 1 µM on hNAMPT protein (compound concentration 1 μM) was 75%; in the test with PC3 cells, -7%.

For the compound `Cn1ccnc1CCNC(=O)c1ccc2nc(-c3ccc(F)cc3)c(-c3ccc(F)cc3)nc2c1` [Compound I-151, 2,3-Bis(4-fluorophenyl)-N-[2-(1-methyl-1H-imidazol-2-yl)ethyl]quinoxaline-6-carboxamide], the pIC50 on hNAMPT protein is 6.30 to 7.00. In addition, the inhibition at 1 µM at hNAMPT protein (compound concentration 1 μM) came out at 79%; in the test on PC3 cells, 96%.

Regarding `CC(C)(C)OC(=O)NCc1cccc(-c2nc3ccc(C(=O)NCCCn4ccnc4)cc3nc2-c2ccccc2)c1` [Compound I-152, tert-butyl[3-(6-{[3-(1H-imidazol-1-yl)propyl]carbamoyl}-3-phenylquinoxalin-2-yl)benzyl]carbamate], the pIC50 on hNAMPT protein is 6.00 to 6.30. The inhibition at 1 µM at hNAMPT protein (compound concentration 1 μM) was found to be 62%; in the test with PC3 cells it was 3%.

Take `O=C(NCCCn1ccnc1)c1ccc2nc(-c3ccccc3)c(N3CCC(O)C3)nc2c1` (stereo not drawn) [Compound I-153, 3-(3-hydroxypyrrolidin-1-yl)-N-[3-(1H-imidazol-1-yl)propyl]-2-phenylquinoxaline-6-carboxamide]: at hNAMPT protein, the negative logarithm of the IC50 (pIC50) was 5.00 to 5.70. For the same compound, the values for the inhibition at 1 µM on hNAMPT protein (compound concentration 1 μM) and with PC3 cells were 22% and 14%, respectively.

For `O=C(NCCCc1ncc[nH]1)c1ccc2nc(N3CC4(COC4)C3)c(-c3ccc(F)cc3)nc2c1` [Compound I-154, 3-(4-fluorophenyl)-N-[3-(1H-imidazol-2-yl)propyl]-2-(2-oxa-6-azaspiro[3.3]hept-6-yl)quinoxaline-6-carboxamide], the pIC50 at hNAMPT protein was more than 7.00. Further, on hNAMPT protein (compound concentration 1 μM), the inhibition at 1 µM was 98%. Besides, the inhibition at 1.667 µM in the test on PC3 cells was found to be 2%.

In the case of `O=C(c1ccc2nc(-c3ccc(F)cc3)c(-c3ccc(F)cc3)nc2c1)N1CCOC(c2cccnc2)C1` (stereo not drawn) [Compound I-155, [2,3-bis(4-fluorophenyl)quinoxalin-6-yl][2-(pyridin-3-yl)morpholin-4-yl]methanone], the pIC50 at hNAMPT protein was 5.00 to 5.70. Also, the inhibition at 1 µM on hNAMPT protein (compound concentration 1 μM) turned out to be 12%; in the test with PC3 cells it was 103%.

In the case of `O=C(NCc1ccc2nccn2c1)c1ccc2nc(N3CCC(O)CC3)c(-c3ccc(F)cc3)nc2c1` [Compound I-156, 3-(4-Fluorophenyl)-2-(4-hydroxypiperidin-1-yl)-N-(imidazo[1,2-a]pyridin-6-ylmethyl)quinoxaline-6-carboxamide], the negative-log IC50 (pIC50) on hNAMPT protein was more than 7.00. In addition, the inhibition at 1 µM on hNAMPT protein (compound concentration 1 μM) was 97%. In addition, the inhibition at 1.667 µM with PC3 cells stood at 2%.

Regarding `N#Cc1cccc(-c2nc3cc(C(=O)NCCCn4ccnc4)ccc3nc2-c2ccccc2)c1` [Compound I-157, 3-(3-cyanophenyl)-N-[3-(1H-imidazol-1-yl)propyl]-2-phenylquinoxaline-6-carboxamide], the pIC50 at hNAMPT protein was 5.70 to 6.00. Further, the results for the inhibition at 1 µM on hNAMPT protein (compound concentration 1 μM) and with PC3 cells were 40% and 2%, respectively.

On to `Cc1nc2ccc(C(=O)NCCCn3ccnc3)cc2nc1-c1ccccc1` [Compound I-158, N-[3-(1H-imidazol-1-yl)propyl]-2-methyl-3-phenylquinoxaline-6-carboxamide], for which the pIC50 on hNAMPT protein was 5.70 to 6.00. The inhibition at 1 µM on hNAMPT protein (compound concentration 1 μM) came out at 42%; with PC3 cells, 0%.

Regarding `O=C(NCCCn1ccnc1)c1ccc2nc(N3CC4CC4C3)c(-c3ccccc3)nc2c1` (stereo not drawn) [Compound I-159, 2-(3-azabicyclo[3.1.0]hex-3-yl)-N-[3-(1H-imidazol-1-yl)propyl]-3-phenylquinoxaline-6-carboxamide], the pIC50 on hNAMPT protein was 6.30 to 7.00. Also, the inhibition at 1 µM at hNAMPT protein (compound concentration 1 μM) is 71%; in the test with PC3 cells, -6%.

In the case of `O=C(NCCCn1ccnc1)c1ccc2nc(N3CCCCC3)c(-c3ccccc3)nc2c1` [Compound I-161, N-[3-(1H-imidazol-1-yl)propyl]-3-phenyl-2-(piperidin-1-yl)quinoxaline-6-carboxamide], the pIC50 at hNAMPT protein is more than 7.00. Also, the results for the inhibition at 1 µM on hNAMPT protein (compound concentration 1 μM) and with PC3 cells were 89% and -7%, respectively.

Regarding `O=C(NCCCn1ccnc1)c1ccc2nc(-c3ccccc3)c(C3=CCOCC3)nc2c1` [Compound I-162, 3-(3,6-dihydro-2H-pyran-4-yl)-N-[3-(1H-imidazol-1-yl)propyl]-2-phenylquinoxaline-6-carboxamide], the pIC50 on hNAMPT protein was 5.70 to 6.00. Moreover, the inhibition at 1 µM worked out at 44% at hNAMPT protein (compound concentration 1 μM) and 1% in the test with PC3 cells.

`O=C(c1ccc2nc(-c3ccc(F)cc3)c(-c3ccc(F)cc3)nc2c1)N1CCC(c2ccccn2)C1` (stereo not drawn) [Compound I-163, [2,3-bis(4-fluorophenyl)quinoxalin-6-yl][3-(pyridin-2-yl)pyrrolidin-1-yl]methanone]: at hNAMPT protein, the pIC50 is 5.00 to 5.70. The inhibition at 1 µM on hNAMPT protein (compound concentration 1 μM) turned out to be 17%; in the test on PC3 cells it was 86%.

For `O=C(NCCc1nccs1)c1ccc2nc(-c3ccc(F)cc3)c(-c3ccc(F)cc3)nc2c1` [Compound I-164, 2,3-Bis(4-fluorophenyl)-N-[2-(1,3-thiazol-2-yl)ethyl]quinoxaline-6-carboxamide], the pIC50 at hNAMPT protein was 6.30 to 7.00. In addition, the results for the inhibition at 1 µM at hNAMPT protein and in the test with PC3 cells were 83% and 101%, respectively.

`CN1CC=C(c2nc3ccc(C(=O)NCCCn4ccnc4)cc3nc2-c2ccccc2)CC1` [Compound I-165, N-[3-(1H-imidazol-1-yl)propyl]-2-(1-methyl-1,2,3,6-tetrahydropyridin-4-yl)-3-phenylquinoxaline-6-carboxamide]: the negative logarithm of the IC50 (pIC50) on hNAMPT protein is 6.30 to 7.00. Besides, the inhibition at 1 µM on hNAMPT protein (compound concentration 1 μM) is 78%; in the test with PC3 cells it was -7%.
